The Deep4Chem optical property database
Each block holds one compound with its values, some of them ahead of it.

Experiment: photoluminescence quantum yield (fraction); solvent given as SMILES

- photoluminescence quantum yield (in CO): 0.67
SMILES: COC(=O)COc1ccc(/C=C/C2=[N+]3C(=C(c4ccc(N(C)C)cc4)c4c(C)cc(C)n4[B-]3(F)F)C(C)=C2)cc1

- photoluminescence quantum yield (in ClCCl): 0.61
SMILES: CCCCC(CC)Cn1c2cc(C#N)ccc2c2ccc(C#Cc3cc(C#Cc4ccc5c6ccc(C#N)cc6n(CC(CC)CCCC)c5c4)c4ccc5c(C#Cc6ccc7c8ccc(C#N)cc8n(CC(CC)CCCC)c7c6)cc(C#Cc6ccc7c8ccc(C#N)cc8n(CC(CC)CCCC)c7c6)c6ccc3c4c65)cc21 (stereo not given)

- photoluminescence quantum yield (in CC#N): 0.21
SMILES: CCN(CC)c1ccc(/C=N/c2cc3nc4ccccc4nc3cc2/N=C/c2ccc(N(CC)CC)cc2O)c(O)c1

- photoluminescence quantum yield (in ClC(Cl)Cl): 0.1
SMILES: Cc1ccc(N(c2ccc(C)cc2)c2ccc(-c3ccc(C=C(C#N)C#N)o3)cc2)cc1

- photoluminescence quantum yield (in C1CCOC1): 0.42
SMILES: F[B-]1(F)n2c(/C=C/c3ccc(C(=C(c4ccccc4)c4ccccc4)c4ccccc4)cc3)ccc2C(c2ccccc2)=C2C=CC(/C=C/c3ccc(C(=C(c4ccccc4)c4ccccc4)c4ccccc4)cc3)=[N+]21

- photoluminescence quantum yield (in CC#N): 0.6
SMILES: C[n+]1cc2ccc3c[n+](C)cc4ccc(c1)c2c34

- photoluminescence quantum yield (in CS(C)=O): 0.91
SMILES: Fc1ccc2sc3nc(-c4ccccc4)sc3c2c1

- photoluminescence quantum yield (in CC#N): 0.02
- photoluminescence quantum yield (in ClCCl): 0.03
SMILES: CNC(=O)[C@H](C)NC(=O)c1cccc2c1C#Cc1c(NC(=O)[C@@H](NC(C)=O)C(C)C)cccc1OCCCO2

SMILES: Cc1ccccc1C(=O)NN1C2=C(CC3=C1CC(C)(C)CC3=O)C(=O)CC(C)(C)C2
- photoluminescence quantum yield (in C1CCOC1): 0.26
- photoluminescence quantum yield (in CC#N): 0.7
- photoluminescence quantum yield (in CC(C)=O): 0.53
- photoluminescence quantum yield (in CCCCCO): 0.5
- photoluminescence quantum yield (in CO): 0.3
- photoluminescence quantum yield (in ClC(Cl)Cl): 0.64
- photoluminescence quantum yield (in ClCCl): 0.47

- photoluminescence quantum yield (in ClCCl): 0.28
SMILES: O=c1c2ccccc2n(-c2ccc(-c3ccc(-n4c5ccccc5c5ccccc54)cc3)cc2)c2ccccc12

- photoluminescence quantum yield (in CCO): 0.0956
- photoluminescence quantum yield (in ClCCl): 0.152
- photoluminescence quantum yield (in O): 0.01
SMILES: N#CC(C#N)=Cc1ccc(-c2cccc(-c3nc4ccccc4s3)c2O)s1

- photoluminescence quantum yield (in ClC(Cl)Cl): 0.36
SMILES: CC1=c2cc3c(C)c4n(c3cc2=[N+]2C1=Cc1c3ccccc3c(C)n1[B-]2(F)F)[B-](F)(F)[N+]1=C(C)c2ccccc2C1=C4

- photoluminescence quantum yield (in ClCCl): 0.5
SMILES: CCCCN(CCCC)c1ccc(C#Cc2cc(C#Cc3ccc(C(F)(F)F)cc3)c(C#Cc3ccc(N(CCCC)CCCC)cc3)cc2C#Cc2ccc(C(F)(F)F)cc2)cc1

- photoluminescence quantum yield (in CS(C)=O): 0.6
SMILES: N#Cc1c(/C=C/c2ccc(N(c3ccccc3)c3ccccc3)cc2)cc(-c2ccccc2)cc1N1CCCCC1

- photoluminescence quantum yield (in ClCCl): 0.98
SMILES: COc1ccc(-c2cnc(-c3cccnc3)o2)cc1OC

- photoluminescence quantum yield (in CC#N): 0.217
- photoluminescence quantum yield (in CO): 0.152
- photoluminescence quantum yield (in ClCCl): 0.469
- photoluminescence quantum yield (in O): 0.03
SMILES: CCOC(=O)CC[N+]1=c2cc3c(cc2CCC1)=Cc1c(c2ccc(N(C)C)cc2oc1=O)O3

- photoluminescence quantum yield (in O): 0.14
SMILES: CC1(C)C(=O)C=Cc2ccc(N)cc21

- photoluminescence quantum yield (in C1CCOC1): 0.05
SMILES: CC(C)(C)c1cc2c3c(c1)-c1cccc4c1N(B3N1c3ccccc3Sc3cccc-2c31)c1ccccc1S4

- photoluminescence quantum yield (in ClCCl): 0.8
SMILES: CCCCC(CC)Cn1c2cc(-c3ccc(N(c4ccccc4)c4ccccc4)cc3)c(C#N)cc2c2cc(C#N)c(-c3ccc(N(c4ccccc4)c4ccccc4)cc3)cc21 (stereo not given)

SMILES: CC(C)(C)c1ccc2c(c1)sc1[n+]2[B-](F)(F)n2c(c3cccc4cccc2c43)=N1
- photoluminescence quantum yield (in C1CCOC1): 0.85
- photoluminescence quantum yield (in CC#N): 0.93
- photoluminescence quantum yield (in CCCCCC): 0.87
- photoluminescence quantum yield (in Cc1ccccc1): 0.86
- photoluminescence quantum yield (in ClCCl): 0.86

- photoluminescence quantum yield (in ClCCl): 0
SMILES: F[B-]1(F)n2c(c(-c3ccccc3)c3ccccc32)C(c2ccccc2)=C2C(c3ccccc3)=c3ccccc3=[N+]21

- photoluminescence quantum yield (in CS(C)=O): 0.83
SMILES: Cc1ccc2oc(-c3cc4cc(C)ccc4oc3=O)cc2c1

SMILES: O=c1[nH]c2[n+](c3ccccc13)[B-](F)(F)Oc1ccccc1-2
- photoluminescence quantum yield (in CC#N): 0.201
- photoluminescence quantum yield (in Cc1ccccc1): 0.24

- photoluminescence quantum yield (in ClCCl): 0.18
SMILES: N#Cc1ccc(-c2cn3ccc[n+]3[n-]2)cc1

- photoluminescence quantum yield (in ClCCl): 0.15
SMILES: CN(C)c1ccc(/C=C/c2ccncn2)cc1

- photoluminescence quantum yield (in ClCCl): 0.52
SMILES: COc1ccc(-c2c3ccccc3c(-c3ccc(OC)cc3)c3cc4sc(C)cc4cc23)cc1

- photoluminescence quantum yield (in ClCCl): 0.46
SMILES: Fc1ccccc1-c1c2cc(Cl)ccc2nc2cc3ccccc3cc12

- photoluminescence quantum yield (in ClCCl): 0.212
SMILES: COc1ccc(C2=C(C)C3=C(c4c(-c5ccccn5)nc5ccccn45)c4c(C)cc(C)n4[B-](F)(F)[N+]3=C2C)cc1

- photoluminescence quantum yield (in C1CCOC1): 0.13
SMILES: c1cc2ccc1-c1ccc(cc1)-c1ccc([se]1)-c1ccc(cc1)-c1ccc(cc1)-c1ccc([se]1)-c1ccc(cc1)-c1ccc(cc1)-c1ccc([se]1)-c1ccc(cc1)-c1ccc(cc1)-c1ccc-2[se]1

- photoluminescence quantum yield (in ClCCl): 0.36
SMILES: Cc1cccc(C)c1N1C(c2ccccc2)=Cc2cccc[n+]2[B-]1(F)F

SMILES: CN(C)CCN(Cc1c2ccccc2c(CN(CCN(C)C)c2ccc([N+](=O)[O-])cc2[N+](=O)[O-])c2ccccc12)c1ccc([N+](=O)[O-])cc1[N+](=O)[O-]
- photoluminescence quantum yield (in C1CCOC1): 0.0052
- photoluminescence quantum yield (in CC#N): 0.00153
- photoluminescence quantum yield (in CC(C)=O): 0.0012
- photoluminescence quantum yield (in CCO): 0.0136
- photoluminescence quantum yield (in CN(C)C=O): 0.00067
- photoluminescence quantum yield (in CO): 0.0387

- photoluminescence quantum yield (in C1CCCCC1): 0.026
- photoluminescence quantum yield (in CC#N): 0.0012
- photoluminescence quantum yield (in CCO): 0
SMILES: COc1cc(OC)c2c(c1)C(=O)c1ccccc1-2

- photoluminescence quantum yield (in C1CCOC1): 0.033
- photoluminescence quantum yield (in ClC(Cl)Cl): 0.036
SMILES: F[Si](c1c2ccccc2cc2ccccc12)(c1c2ccccc2cc2ccccc12)c1c2ccccc2cc2ccccc12

- photoluminescence quantum yield (in CO): 0.52
SMILES: N#Cc1ccc(-c2nc(-c3ccccc3)c(-c3ccccc3)[nH]2)cc1

- photoluminescence quantum yield (in ClCCl): 0.73
SMILES: C(=C\c1ccncn1)/c1ccc(N(c2ccccc2)c2ccc(/C=C/c3ccncn3)cc2)cc1

- photoluminescence quantum yield (in ClC(Cl)Cl): 0.14
SMILES: CCCCCCCCc1ccc(-n2c3c4ccccc4nc(-c4ccc(C#N)cc4)c3c3c2c2c(-c4ccc(C#N)cc4)nc4ccccc4c2n3-c2ccc(CCCCCCCC)cc2)cc1

- photoluminescence quantum yield (in CC#N): 0.02
SMILES: c1ccc(-[c+]2c3ccccc3sc3ccccc32)cc1

- photoluminescence quantum yield (in CC#N): 0.27
- photoluminescence quantum yield (in CCCCCC): 0.35
SMILES: C/C=C/c1ccc(OC)cc1

- photoluminescence quantum yield (in ClC(Cl)Cl): 0.53
- photoluminescence quantum yield (in ClCCl): 0.57
SMILES: F[B-]1(F)OC(c2ccccc2)=Cc2ccc3ccccc3[n+]21

- photoluminescence quantum yield (in ClCCl): 0.156
SMILES: Cc1c(C)c2c3ccccc3[nH]c2c2ccccc12

SMILES: COc1ccc(N(c2ccc(OC)cc2)c2ccc3ccc4c(B(c5c(C)cc(C)cc5C)c5c(C)cc(C)cc5C)ccc5ccc2c3c54)cc1
- photoluminescence quantum yield (in C1CCOC1): 0.19
- photoluminescence quantum yield (in CC(C)=O): 0.026
- photoluminescence quantum yield (in CCCCCC): 1
- photoluminescence quantum yield (in Cc1ccccc1): 0.85
- photoluminescence quantum yield (in ClC(Cl)Cl): 0.67
- photoluminescence quantum yield (in ClCCl): 0.21

- photoluminescence quantum yield (in ClCCl): 0.89
SMILES: c1cc2c3c(c1)ccc1[n+]3[B-]3(Oc4cccc5ccc6[n+](c45)[B-](O2)(O3)n2c-6cc3c4ccccc4c4ccccc4c32)n2c-1cc1c3ccccc3c3ccccc3c12

- photoluminescence quantum yield (in ClCCl): 0.282
SMILES: COC(=O)c1[nH]c(-c2ccc(OC)cc2)c2nnc3ccc(OC)cc3c12

- photoluminescence quantum yield (in C1CCOC1): 0.6
- photoluminescence quantum yield (in ClCCl): 0.82
SMILES: CC1=C(C#Cc2ccccc2)C(C)=[N+]2C1=C(c1ccccc1)c1c(C)c(C#Cc3ccccc3)c(C)n1[B-]2(F)F

SMILES: Cc1ccc(-c2c3ccc([nH]3)c3nc(c(-c4ccc(C#N)cc4)c4ccc([nH]4)c4ccc([nH]4)c(-c4ccc(C)cc4)c4ccc2o4)C=C3)cc1
- photoluminescence quantum yield (in C1CCOC1): 0.179
- photoluminescence quantum yield (in Cc1ccccc1): 0.166
- photoluminescence quantum yield (in c1ccccc1): 0.175
